Laboratory results from the supplement of paper PMC10307832.

Experiments:
Experiment in all cases: relative viability (nuclei count vs DMSO), 5 days (fraction); higher = more cells survive
Omipalisib = compound: COc1ncc(-c2ccc3nccc(-c4ccnnc4)c3c2)cc1NS(=O)(=O)c1ccc(F)cc1F [Omipalisib]
How it was run: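 Acceptance criteria were a control CV below 25% and at least one doubling per plate. Lung cancer cell lines in 1536-well plates got five library-drug doses (not always all listed) √10 apart by pinning and were left 5 days with no medium change. Viability divides treated-well nuclei by vehicle-well nuclei and is the median across plates. Nuclei were counted by MetaXpress from 4× Hoechst images.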

Omipalisib + Palbociclib = compound: COc1ncc(-c2ccc3nccc(-c4ccnnc4)c3c2)cc1NS(=O)(=O)c1ccc(F)cc1F [Omipalisib] + CC(=O)c1c(C)c2cnc(Nc3ccc(N4CCNCC4)cn3)nc2n(C2CCCC2)c1=O [Palbociclib] (partner 0.5 µM)
How it was run: (§1)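 A single step with final 0.05% Triton X-100, 1% formaldehyde and 1 ug/ml Hoechst fixed the cells and stained nuclei 5 days after treatment. Lung cancer cell lines in 1536-well plates had been treated by pin tool the day after seeding with one drug alone or a fixed anchor-drug dose plus five library-drug doses (not always all listed) in √10 steps, and nuclei were counted on 4× images. Relative viability is the ratio of nuclei in treated wells to nuclei in vehicle wells, taken as the median of duplicate plates.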

Omipalisib + Decitabine = compound: COc1ncc(-c2ccc3nccc(-c4ccnnc4)c3c2)cc1NS(=O)(=O)c1ccc(F)cc1F [Omipalisib] + Nc1ncn([C@H]2C[C@H](O)[C@@H](CO)O2)c(=O)n1 [Decitabine] (partner 2 µM)
How it was run: as §1

In the case of NCI-H1650, the relative viability (Omipalisib; 0.0003 µM) is reported as 0.861, the relative viability (Omipalisib; 0.003 µM) is reported as 0.946 and the relative viability (Omipalisib; 0.03 µM) is reported as 0.613. The relative viability (Omipalisib + Palbociclib; first compound 0.0003 µM) was 0.274, the relative viability (Omipalisib + Palbociclib; first compound 0.003 µM) was 0.29 and the relative viability (Omipalisib + Palbociclib; first compound 0.03 µM) was 0.261. The relative viability (Omipalisib + Decitabine; first compound 0.0003 µM) was 0.272, the relative viability (Omipalisib + Decitabine; first compound 0.003 µM) was 0.395 and the relative viability (Omipalisib + Decitabine; first compound 0.03 µM) was 0.42.

NCI-H1651 was tested, and the relative viability (Omipalisib; 0.0003 µM) was 0.928, the relative viability (Omipalisib; 0.003 µM) was 0.851 and the relative viability (Omipalisib; 0.03 µM) was 0.595. It also gave a relative viability (Omipalisib + Palbociclib; first compound 0.0003 µM) of 0.464, a relative viability (Omipalisib + Palbociclib; first compound 0.003 µM) of 0.401 and a relative viability (Omipalisib + Palbociclib; first compound 0.03 µM) of 0.294. For the same cell line, the relative viability (Omipalisib + Decitabine; first compound 0.0003 µM) was 0.528, the relative viability (Omipalisib + Decitabine; first compound 0.003 µM) was 0.476 and the relative viability (Omipalisib + Decitabine; first compound 0.03 µM) was 0.446.

NCI-H2126 showed a relative viability (Omipalisib; 0.0003 µM) of 0.972, a relative viability (Omipalisib; 0.003 µM) of 0.687 and a relative viability (Omipalisib; 0.03 µM) of 0.495. The relative viability (Omipalisib + Palbociclib; first compound 0.0003 µM) was 0.344, the relative viability (Omipalisib + Palbociclib; first compound 0.003 µM) was 0.344 and the relative viability (Omipalisib + Palbociclib; first compound 0.03 µM) was 0.317. It also gave a relative viability (Omipalisib + Decitabine; first compound 0.0003 µM) of 0.548, a relative viability (Omipalisib + Decitabine; first compound 0.003 µM) of 0.414 and a relative viability (Omipalisib + Decitabine; first compound 0.03 µM) of 0.304.

With LCLC-103H the relative viability (Omipalisib; 0.0003 µM) was 1.04, the relative viability (Omipalisib; 0.003 µM) was 0.745 and the relative viability (Omipalisib; 0.03 µM) was 0.617. For the same cell line, the relative viability (Omipalisib + Palbociclib; first compound 0.0003 µM) was 0.481, the relative viability (Omipalisib + Palbociclib; first compound 0.003 µM) was 0.479 and the relative viability (Omipalisib + Palbociclib; first compound 0.03 µM) was 0.356. The relative viability (Omipalisib + Decitabine; first compound 0.0003 µM) was 0.69, the relative viability (Omipalisib + Decitabine; first compound 0.003 µM) was 0.639 and the relative viability (Omipalisib + Decitabine; first compound 0.03 µM) was 0.4.

NCI-H23 gave a relative viability (Omipalisib; 0.0003 µM) of 0.913, a relative viability (Omipalisib; 0.003 µM) of 0.594 and a relative viability (Omipalisib; 0.03 µM) of 0.464. The relative viability (Omipalisib + Palbociclib; first compound 0.0003 µM) was 0.391, the relative viability (Omipalisib + Palbociclib; first compound 0.003 µM) was 0.239 and the relative viability (Omipalisib + Palbociclib; first compound 0.03 µM) was 0.211. It also gave a relative viability (Omipalisib + Decitabine; first compound 0.0003 µM) of 0.308, a relative viability (Omipalisib + Decitabine; first compound 0.003 µM) of 0.24 and a relative viability (Omipalisib + Decitabine; first compound 0.03 µM) of 0.243.

Cell Line EPLC-272H has a relative viability (Omipalisib; 0.0003 µM) of 0.958, a relative viability (Omipalisib; 0.003 µM) of 0.661 and a relative viability (Omipalisib; 0.03 µM) of 0.387. It also gave a relative viability (Omipalisib + Palbociclib; first compound 0.0003 µM) of 0.311, a relative viability (Omipalisib + Palbociclib; first compound 0.003 µM) of 0.306 and a relative viability (Omipalisib + Palbociclib; first compound 0.03 µM) of 0.225. It also gave a relative viability (Omipalisib + Decitabine; first compound 0.0003 µM) of 0.346, a relative viability (Omipalisib + Decitabine; first compound 0.003 µM) of 0.269 and a relative viability (Omipalisib + Decitabine; first compound 0.03 µM) of 0.172.

NCI-H1975 was tested, and the relative viability (Omipalisib; 0.0003 µM) was 0.911, the relative viability (Omipalisib; 0.003 µM) was 0.672 and the relative viability (Omipalisib; 0.03 µM) was 0.374. The relative viability (Omipalisib + Palbociclib; first compound 0.0003 µM) was 0.669, the relative viability (Omipalisib + Palbociclib; first compound 0.003 µM) was 0.248 and the relative viability (Omipalisib + Palbociclib; first compound 0.03 µM) was 0.173. For the same cell line, the relative viability (Omipalisib + Decitabine; first compound 0.0003 µM) was 0.398, the relative viability (Omipalisib + Decitabine; first compound 0.003 µM) was 0.296 and the relative viability (Omipalisib + Decitabine; first compound 0.03 µM) was 0.178.

Cell Line NCI-H2170 has a relative viability (Omipalisib; 0.0003 µM) of 0.813, a relative viability (Omipalisib; 0.003 µM) of 0.608 and a relative viability (Omipalisib; 0.03 µM) of 0.587. The relative viability (Omipalisib + Palbociclib; first compound 0.0003 µM) was 0.301, the relative viability (Omipalisib + Palbociclib; first compound 0.003 µM) was 0.236 and the relative viability (Omipalisib + Palbociclib; first compound 0.03 µM) was 0.173. The relative viability (Omipalisib + Decitabine; first compound 0.0003 µM) was 0.446, the relative viability (Omipalisib + Decitabine; first compound 0.003 µM) was 0.339 and the relative viability (Omipalisib + Decitabine; first compound 0.03 µM) was 0.29.

NCI-H358 showed a relative viability (Omipalisib; 0.0003 µM) of 0.893, a relative viability (Omipalisib; 0.003 µM) of 0.561 and a relative viability (Omipalisib; 0.03 µM) of 0.388. The relative viability (Omipalisib + Palbociclib; first compound 0.0003 µM) was 0.148, the relative viability (Omipalisib + Palbociclib; first compound 0.003 µM) was 0.139 and the relative viability (Omipalisib + Palbociclib; first compound 0.03 µM) was 0.131. For the same cell line, the relative viability (Omipalisib + Decitabine; first compound 0.0003 µM) was 0.199, the relative viability (Omipalisib + Decitabine; first compound 0.003 µM) was 0.174 and the relative viability (Omipalisib + Decitabine; first compound 0.03 µM) was 0.141.

For PC-3 [JPC-3], the relative viability (Omipalisib; 0.0003 µM) was 1.01, the relative viability (Omipalisib; 0.003 µM) was 1.07 and the relative viability (Omipalisib; 0.03 µM) was 0.912. It also gave a relative viability (Omipalisib + Palbociclib; first compound 0.0003 µM) of 0.547, a relative viability (Omipalisib + Palbociclib; first compound 0.003 µM) of 0.527 and a relative viability (Omipalisib + Palbociclib; first compound 0.03 µM) of 0.534. For the same cell line, the relative viability (Omipalisib + Decitabine; first compound 0.0003 µM) was 0.776, the relative viability (Omipalisib + Decitabine; first compound 0.003 µM) was 0.816 and the relative viability (Omipalisib + Decitabine; first compound 0.03 µM) was 0.627.

For A-427, the relative viability (Omipalisib; 0.0003 µM) was 0.994, the relative viability (Omipalisib; 0.003 µM) was 0.866 and the relative viability (Omipalisib; 0.03 µM) was 0.828. The relative viability (Omipalisib + Palbociclib; first compound 0.0003 µM) was 0.501, the relative viability (Omipalisib + Palbociclib; first compound 0.003 µM) was 0.49 and the relative viability (Omipalisib + Palbociclib; first compound 0.03 µM) was 0.455. The relative viability (Omipalisib + Decitabine; first compound 0.0003 µM) was 0.538, the relative viability (Omipalisib + Decitabine; first compound 0.003 µM) was 0.443 and the relative viability (Omipalisib + Decitabine; first compound 0.03 µM) was 0.417.

With LU99A the relative viability (Omipalisib; 0.0003 µM) was 0.936, the relative viability (Omipalisib; 0.003 µM) was 0.847 and the relative viability (Omipalisib; 0.03 µM) was 0.395. The relative viability (Omipalisib + Palbociclib; first compound 0.0003 µM) was 0.396, the relative viability (Omipalisib + Palbociclib; first compound 0.003 µM) was 0.24 and the relative viability (Omipalisib + Palbociclib; first compound 0.03 µM) was 0.183. The relative viability (Omipalisib + Decitabine; first compound 0.0003 µM) was 0.912, the relative viability (Omipalisib + Decitabine; first compound 0.003 µM) was 0.519 and the relative viability (Omipalisib + Decitabine; first compound 0.03 µM) was 0.311.

H3255 was tested, and the relative viability (Omipalisib; 0.0003 µM) was 0.93, the relative viability (Omipalisib; 0.003 µM) was 0.85 and the relative viability (Omipalisib; 0.03 µM) was 0.51. The relative viability (Omipalisib + Palbociclib; first compound 0.0003 µM) was 0.365, the relative viability (Omipalisib + Palbociclib; first compound 0.003 µM) was 0.313 and the relative viability (Omipalisib + Palbociclib; first compound 0.03 µM) was 0.285. It also gave a relative viability (Omipalisib + Decitabine; first compound 0.0003 µM) of 0.534, a relative viability (Omipalisib + Decitabine; first compound 0.003 µM) of 0.471 and a relative viability (Omipalisib + Decitabine; first compound 0.03 µM) of 0.305.

For NCI-H1437, the relative viability (Omipalisib; 0.0003 µM) was 1, the relative viability (Omipalisib; 0.003 µM) was 0.837 and the relative viability (Omipalisib; 0.03 µM) was 0.398. The relative viability (Omipalisib + Palbociclib; first compound 0.0003 µM) was 0.363, the relative viability (Omipalisib + Palbociclib; first compound 0.003 µM) was 0.307 and the relative viability (Omipalisib + Palbociclib; first compound 0.03 µM) was 0.218. For the same cell line, the relative viability (Omipalisib + Decitabine; first compound 0.0003 µM) was 0.519, the relative viability (Omipalisib + Decitabine; first compound 0.003 µM) was 0.564 and the relative viability (Omipalisib + Decitabine; first compound 0.03 µM) was 0.398.

LC-2-ad showed a relative viability (Omipalisib; 0.0003 µM) of 0.942, a relative viability (Omipalisib; 0.003 µM) of 0.831 and a relative viability (Omipalisib; 0.03 µM) of 0.556. For the same cell line, the relative viability (Omipalisib + Palbociclib; first compound 0.0003 µM) was 0.488, the relative viability (Omipalisib + Palbociclib; first compound 0.003 µM) was 0.458 and the relative viability (Omipalisib + Palbociclib; first compound 0.03 µM) was 0.299. For the same cell line, the relative viability (Omipalisib + Decitabine; first compound 0.0003 µM) was 0.812, the relative viability (Omipalisib + Decitabine; first compound 0.003 µM) was 0.739 and the relative viability (Omipalisib + Decitabine; first compound 0.03 µM) was 0.63.

With NCI-H1793 the relative viability (Omipalisib; 0.0003 µM) was 0.74, the relative viability (Omipalisib; 0.003 µM) was 0.514 and the relative viability (Omipalisib; 0.03 µM) was 0.317. The relative viability (Omipalisib + Palbociclib; first compound 0.0003 µM) was 0.243, the relative viability (Omipalisib + Palbociclib; first compound 0.003 µM) was 0.215 and the relative viability (Omipalisib + Palbociclib; first compound 0.03 µM) was 0.15. For the same cell line, the relative viability (Omipalisib + Decitabine; first compound 0.0003 µM) was 0.398, the relative viability (Omipalisib + Decitabine; first compound 0.003 µM) was 0.282 and the relative viability (Omipalisib + Decitabine; first compound 0.03 µM) was 0.214.

In the case of NCI-H460, the relative viability (Omipalisib; 0.0003 µM) is reported as 1, the relative viability (Omipalisib; 0.003 µM) is reported as 0.787 and the relative viability (Omipalisib; 0.03 µM) is reported as 0.334. The relative viability (Omipalisib + Palbociclib; first compound 0.0003 µM) was 0.147, the relative viability (Omipalisib + Palbociclib; first compound 0.003 µM) was 0.0934 and the relative viability (Omipalisib + Palbociclib; first compound 0.03 µM) was 0.0384. The relative viability (Omipalisib + Decitabine; first compound 0.0003 µM) was 0.41, the relative viability (Omipalisib + Decitabine; first compound 0.003 µM) was 0.286 and the relative viability (Omipalisib + Decitabine; first compound 0.03 µM) was 0.247.
